Values quoted from earlier work, collected in publication PMC8000448, “Inhibitory Effects of Schisandra Lignans on Cytochrome P450s and Uridine 5′-Diphospho-Glucuronosyl Transferases in Human Liver Microsomes” (Pharmaceutics, 2021).
Read-outs that look alike come from different tables or passages of the source.

Legend:
recombinant CYP3A4 [1] = details: recombinant CYP3A4 isoform; read-out: IC50, CYP3A-mediated midazolam 1′-hydroxylation; cited from earlier work
recombinant CYP3A4 [2] = details: rCYP3A4, fluorescent substrate; cited from earlier work
CYP3A [3] = details: read-out: Ki, CYP3A-mediated testosterone hydroxylation; cited from earlier work
CYP1A2 = test system: CYP1A2; set-up: method as in PMID 15342469; details: cited from earlier work
CYP2C9 = test system: CYP2C9; set-up: method as in PMID 15342469; details: cited from earlier work
CYP2C19 = test system: CYP2C19; set-up: method as in PMID 15342469; details: cited from earlier work
CYP2D6 = test system: CYP2D6; set-up: method as in PMID 15342469; details: cited from earlier work
CYP3A [4] = test system: CYP3A; set-up: method as in PMID 15342469; details: read-out: IC50, CYP3A-mediated testosterone hydroxylase activity; cited from earlier work
recombinant CYP2C19 = test system: recombinant CYP2C19; set-up: method as in PMID 24855828; details: read-out: IC50, CYP2C19-catalyzed omeprazole hydroxylation; cited from earlier work
CYP3A [5] = details: rats; cited from earlier work

Compound | IC50 (recombinant CYP3A4 [1]) [µM] | IC50 (recombinant CYP3A4 [2]) [µM] | Ki (CYP3A [3]) [µM] | IC50 (CYP1A2) [µM] | IC50 (CYP2C9) [µM] | IC50 (CYP2C19) [µM] | IC50 (CYP2D6) [µM] | IC50 (CYP3A [4]) [µM] | IC50 (recombinant CYP2C19) [µM] | Plasma concentrations of midazolam (CYP3A [5])
gomisin A | 1.86 | 1.39 | 1.01 | > 10 | > 10 | > 10 | > 10 |  |  | 
COc1cc2c(c(OC)c1OC)-c1c(cc3c(c1OC)OCO3)[C@H](OC(=O)c1ccccc1)[C@@](C)(O)[C@@H](C)C2 [gomisin G, reference compound] | 0.19 |  |  |  |  |  |  |  |  | 
gomisin B |  |  |  | > 10 | > 10 | > 10 | > 10 | 0.26 to 0.62 |  | 
COc1cc2c(c(OC)c1OC)-c1c(cc(OC)c(OC)c1OC)C[C@H](C)[C@H](C)C2 [schisandrin A, reference compound] |  |  |  |  |  |  |  |  | 86.4 | markedly increases
